Data as given in the NIST ThermoML archive (doi:10.1016/j.fluid.2018.05.028).

Test: xn = mol fraction of the nth substance listed
Details: 101 kPa, Liquid; for speed of sound: Single path-length method; for mass density: Vibrating tube method; for viscosity: Concentric cylinders viscometry

CCCCCCCCCCCCCCCC [hexadecane] + CCCCO
Details	mass density [kg/m3]	speed of sound [m/s]	viscosity [mPa·s]
318.15 K, x2 = 0	756.05	–	–
318.15 K, x2 = 0.1	756.2	–	–
318.15 K, x2 = 0.2	757.02	–	–
318.15 K, x2 = 0.3	758.17	–	–
318.15 K, x2 = 0.4	759.66	–	–
318.15 K, x2 = 0.5	761.63	1229.5	–
318.15 K, x2 = 0.6	764.24	1221.4	–
318.15 K, x2 = 0.7	767.71	1212.1	–
318.15 K, x2 = 0.8	772.49	1201.3	–
318.15 K, x2 = 0.9	779.38	1188.2	–
323.15 K, x2 = 0	752.61	1247.1	1.823
323.15 K, x2 = 0.1	752.66	1238.6	1.707
323.15 K, x2 = 0.2	753.42	1232.1	1.654
323.15 K, x2 = 0.3	754.53	1225.7	1.6
323.15 K, x2 = 0.4	755.97	1218.8	1.556
323.15 K, x2 = 0.5	757.89	1211.4	1.517
323.15 K, x2 = 0.6	760.45	1203.4	1.479
323.15 K, x2 = 0.7	763.86	1194.2	1.452
323.15 K, x2 = 0.8	768.59	1183.6	1.435
323.15 K, x2 = 0.9	775.44	1171	1.404
328.15 K, x2 = 0	749.18	1229.3	1.671
328.15 K, x2 = 0.1	749.13	1220.8	1.563
328.15 K, x2 = 0.2	749.82	1214.2	1.514
328.15 K, x2 = 0.3	750.87	1207.7	1.464
328.15 K, x2 = 0.4	752.26	1200.8	1.422
328.15 K, x2 = 0.5	754.13	1193.4	1.383
328.15 K, x2 = 0.6	756.63	1185.4	1.346
328.15 K, x2 = 0.7	759.99	1176.4	1.317
328.15 K, x2 = 0.8	764.66	1166	1.297
328.15 K, x2 = 0.9	771.46	1153.8	1.264
333.15 K, x2 = 0	745.74	1211.8	1.537
333.15 K, x2 = 0.1	745.58	1203.1	1.437
333.15 K, x2 = 0.2	746.2	1196.3	1.389
333.15 K, x2 = 0.3	747.19	1189.8	1.343
333.15 K, x2 = 0.4	748.53	1182.9	1.303
333.15 K, x2 = 0.5	750.34	1175.6	1.266
333.15 K, x2 = 0.6	752.78	1167.6	1.23
333.15 K, x2 = 0.7	756.08	1158.7	1.199
333.15 K, x2 = 0.8	760.69	1148.5	1.177
333.15 K, x2 = 0.9	767.42	1136.6	1.143
338.15 K, x2 = 0	742.31	1194.4	1.421
338.15 K, x2 = 0.1	742.04	1185.5	1.328
338.15 K, x2 = 0.2	742.57	1178.7	1.282
338.15 K, x2 = 0.3	743.51	1172.1	1.238
338.15 K, x2 = 0.4	744.78	1165.2	1.2
338.15 K, x2 = 0.5	746.53	1157.9	1.163
338.15 K, x2 = 0.6	748.9	1149.9	1.127
338.15 K, x2 = 0.7	752.13	1141	1.095
338.15 K, x2 = 0.8	756.66	1131	1.071
338.15 K, x2 = 0.9	763.33	1119.5	1.036
343.15 K, x2 = 0	738.88	1177.5	1.316
343.15 K, x2 = 0.1	738.5	1168.3	1.23
343.15 K, x2 = 0.2	738.94	1161.2	1.185
343.15 K, x2 = 0.3	739.8	1154.6	1.144
343.15 K, x2 = 0.4	741.01	1147.7	1.107
343.15 K, x2 = 0.5	742.68	1140.3	1.071
343.15 K, x2 = 0.6	744.98	1132.3	1.037
343.15 K, x2 = 0.7	748.13	1123.5	1.004
343.15 K, x2 = 0.8	752.59	1113.6	0.9782
343.15 K, x2 = 0.9	759.19	1102.4	0.9425
